These results are taken from patent publication US20250179055A1, “Substituted 2-(pyrrolidine-3-yl)acetic acid derivative, preparation method and use thereof” (INNOVSTONE THERAPEUTICS LIMITED, priority 2023, published 2025).

Molecules are shown by their SMILES. pIC50: −log10 of the molar value.

What is called pIC50 is the negative decadic logarithm of the IC50, by convention in mol/L. Read a high pIC50 as a small IC50. What is called AUC is concentration integrated over time. In general, half-life refers to the time needed for the level to fall by half in the phase considered. Lower therefore signals rapid decline. As usually defined, the bioavailability is the share of a dose that reaches the circulation, judged against a reference dose that is usually intravenous. A low value points to little systemic uptake. The Cmax is the highest concentration seen after dosing.

The target in data set [1] is Lp(a) assembly in HepG2 cells overexpressing ApoA protein (Homo sapiens (Human), UniProt P08519). Nature of the data set: ELISA assay on screening Lp(a) assembly inhibition. The class given is cell-based. The conditions noted are these: HepG2 cells overexpressing ApoA protein, 24 h, ELISA of supernatant. The method, boiled down: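 HepG2 cells overexpressing ApoA treated with diluted compounds for 24 h at 37 °C, 5% CO2; EACA (10 μL of 1.5 M) added before harvesting supernatant. Secreted Lp(a) quantified by sandwich ELISA; IC50 from four-parameter Hill fit of % inhibition versus concentration.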
Background: An ELISA detects its analyte on a solid surface through an enzyme-linked reagent.

Data set [2] in a line: Pharmacokinetic test in C57BL/6J female mice. Type of data set: in vivo. The conditions noted are these: mouse, plasma; for bioavailability: gavage 10 mg/kg vs intravenous 2 mg/kg. The procedure: C57BL/6J female mice were used as test animals, and the drug concentration in plasma of C57BL/6J female mice at different time points after intravenous and gavage administration was determined to study the pharmacokinetic characteristics of the compound in C57BL/6J female mice.
Drug formulation: a certain amount of compound was weighed and normal saline was added to prepare clear, colorless solutions of 0.4 mg/mL (IV) and 1 mg/mL (PO).
Test procedure: C57BL/6J female mice were fasted overnight before gavage administration, followed by non-fasted intravenous administration. The intravenous dose was 2 mg/kg, and the gavage dose was 10 mg/kg. Approximately 0.03 mL of blood was collected from the orbital venous plexus at 0.083 (IV), 0.25, 0.5, 1, 2, 4, 8 and 24 h after administration, respectively, placed in a centrifuge tube containing EDTA-K2, centrifuged at 3000 rpm/min at 2-8° C. for 10 min to obtain plasma, and stored at −80° C.
Determination of the content of the compound to be tested in plasma of C57BL/6J female mice at different blood collection time points: 10 μL of plasma of C57BL/6J female mice collected at each time point after administration of LY3473329 and the compound of this application was added with 200 μL of 500 mM trichloroacetic acid aqueous solution to precipitate protein, which contained 100 ng/mL internal standard, vortexed for 1 min, centrifuged at 14000 rpm for 7 min for samples treated with test tubes, and centrifuged at 4000 rpm for 10 min for samples treated with 96-well plates, and 190 μL of the supernatant was transferred to a 96-well plate, and 8 μL of the supernatant was injected for LC-MS/MS analysis. WO2023078333A1 Example 6:12 μL of plasma of C57BL/6J female mice collected at each time point after administration was added with 240 μL of methanol to precipitate protein, which contained 10 ng/mL internal standard, vortexed for 1 min, centrifuged at 14000 rpm for 7 min for samples treated with test tubes, and centrifuged at 4000 rpm for 10 min for samples treated with 96-well plates. 220 μL of the supernatant was transferred to a 96-well plate, and 10 μL of the supernatant was taken for LC-MS/MS analysis.
After plasma concentrations were determined by LC/MS/MS analysis method, pharmacokinetic parameters (e.g. Cmax, AUC, T1/2, etc.) were calculated using WinNonlin software and noncompartmental analysis.

The subject of the next data set is serum Lp(a). Nature of the data set: Humanized mouse Lp(a) inhibition test. The class given is in vivo, humanized Lp(a) transgenic mouse. The conditions noted are these: 5 mg/kg oral once daily for 3 days, blood 8 h after last dose, humanized Lp(a) mice. The procedure: The in vivo pharmacodynamics of the compounds in reducing Lp(a) was evaluated in a humanized Lp(a) transgenic mouse model. Lp(a) mice were obtained by crossing mice expressing humanized apoB-100 with mice expressing humanized apo(a) containing 16 Kringle repeats. Female mice aged 8-9 weeks were selected for the test. Housing conditions: standard light cycle (12 h light/12 h dark), temperature 20-25° C., humidity 40-70%, free access to water and normal diet. is One day before the test, mice were divided into vehicle control group and test article group (n=5/group) according to body weight and baseline plasma Lp(a) concentration. Mice were orally administered with vehicle (normal saline, 10 mL/kg) or test compound (prepared with normal saline to 3 or 0.5 mg/mL, each mouse received 10 mL/kg), once daily (9:00 am) for 3 consecutive days, and blood was collected to determine the change of serum Lp(a). Eight hours after the last dose, 10 μL of blood was collected from the tail vein and transferred to a 1.5 mL centrifuge tube containing 90 μL of normal saline, mixed well, and left to stand on ice for 30 min. The above samples were centrifuged at 4° C., 3000 rpm for 10 min, and the supernatant was collected and placed on ice. The Lp(a) concentration in the supernatant was measured by double-antibody sandwich ELISA using an anti-apo(a) capture antibody and an HRP-conjugated anti-ApoB detection antibody, with TMB for color development. The reaction was stopped with 1 N sulfuric acid, and the OD value was read at 450 nm on a Tecan microplate reader. Inhibition rate was calculated for each dosing group. Inhibition rate (%)=(vehicle control group Lp(a) concentration or self pre-dose Lp(a) concentration post-dose Lp(a) concentration)/vehicle control group Lp(a) concentration or self pre-dose Lp(a) concentration*100.

Data set [3] can be described thus: Safety assessment test in rats (14-day oral gavage). The class given is in vivo. The conditions noted are these: SD rats, 300 and 1000 mg/kg oral once daily for 14 days. The procedure:
The safety of the compounds of the present invention was evaluated by oral gavage administration to SD rats as the test animals.
Test method: 50 SD rats (half males and half females) were randomly divided into vehicle control group and test article group according to their body weight. The vehicle saline or the compound of the present invention or LY3473329 (300 mg/kg, 1000 mg/kg) was administered orally once daily for 14 consecutive days.

Setting [4] is: intravenous administration, 2 mg/kg.
The mark [5] stands for this setting: po, gavage administration, 10 mg/kg.

Chain of Lp(a) assembly in HepG2 cells overexpressing ApoA protein (P08519 20-2040): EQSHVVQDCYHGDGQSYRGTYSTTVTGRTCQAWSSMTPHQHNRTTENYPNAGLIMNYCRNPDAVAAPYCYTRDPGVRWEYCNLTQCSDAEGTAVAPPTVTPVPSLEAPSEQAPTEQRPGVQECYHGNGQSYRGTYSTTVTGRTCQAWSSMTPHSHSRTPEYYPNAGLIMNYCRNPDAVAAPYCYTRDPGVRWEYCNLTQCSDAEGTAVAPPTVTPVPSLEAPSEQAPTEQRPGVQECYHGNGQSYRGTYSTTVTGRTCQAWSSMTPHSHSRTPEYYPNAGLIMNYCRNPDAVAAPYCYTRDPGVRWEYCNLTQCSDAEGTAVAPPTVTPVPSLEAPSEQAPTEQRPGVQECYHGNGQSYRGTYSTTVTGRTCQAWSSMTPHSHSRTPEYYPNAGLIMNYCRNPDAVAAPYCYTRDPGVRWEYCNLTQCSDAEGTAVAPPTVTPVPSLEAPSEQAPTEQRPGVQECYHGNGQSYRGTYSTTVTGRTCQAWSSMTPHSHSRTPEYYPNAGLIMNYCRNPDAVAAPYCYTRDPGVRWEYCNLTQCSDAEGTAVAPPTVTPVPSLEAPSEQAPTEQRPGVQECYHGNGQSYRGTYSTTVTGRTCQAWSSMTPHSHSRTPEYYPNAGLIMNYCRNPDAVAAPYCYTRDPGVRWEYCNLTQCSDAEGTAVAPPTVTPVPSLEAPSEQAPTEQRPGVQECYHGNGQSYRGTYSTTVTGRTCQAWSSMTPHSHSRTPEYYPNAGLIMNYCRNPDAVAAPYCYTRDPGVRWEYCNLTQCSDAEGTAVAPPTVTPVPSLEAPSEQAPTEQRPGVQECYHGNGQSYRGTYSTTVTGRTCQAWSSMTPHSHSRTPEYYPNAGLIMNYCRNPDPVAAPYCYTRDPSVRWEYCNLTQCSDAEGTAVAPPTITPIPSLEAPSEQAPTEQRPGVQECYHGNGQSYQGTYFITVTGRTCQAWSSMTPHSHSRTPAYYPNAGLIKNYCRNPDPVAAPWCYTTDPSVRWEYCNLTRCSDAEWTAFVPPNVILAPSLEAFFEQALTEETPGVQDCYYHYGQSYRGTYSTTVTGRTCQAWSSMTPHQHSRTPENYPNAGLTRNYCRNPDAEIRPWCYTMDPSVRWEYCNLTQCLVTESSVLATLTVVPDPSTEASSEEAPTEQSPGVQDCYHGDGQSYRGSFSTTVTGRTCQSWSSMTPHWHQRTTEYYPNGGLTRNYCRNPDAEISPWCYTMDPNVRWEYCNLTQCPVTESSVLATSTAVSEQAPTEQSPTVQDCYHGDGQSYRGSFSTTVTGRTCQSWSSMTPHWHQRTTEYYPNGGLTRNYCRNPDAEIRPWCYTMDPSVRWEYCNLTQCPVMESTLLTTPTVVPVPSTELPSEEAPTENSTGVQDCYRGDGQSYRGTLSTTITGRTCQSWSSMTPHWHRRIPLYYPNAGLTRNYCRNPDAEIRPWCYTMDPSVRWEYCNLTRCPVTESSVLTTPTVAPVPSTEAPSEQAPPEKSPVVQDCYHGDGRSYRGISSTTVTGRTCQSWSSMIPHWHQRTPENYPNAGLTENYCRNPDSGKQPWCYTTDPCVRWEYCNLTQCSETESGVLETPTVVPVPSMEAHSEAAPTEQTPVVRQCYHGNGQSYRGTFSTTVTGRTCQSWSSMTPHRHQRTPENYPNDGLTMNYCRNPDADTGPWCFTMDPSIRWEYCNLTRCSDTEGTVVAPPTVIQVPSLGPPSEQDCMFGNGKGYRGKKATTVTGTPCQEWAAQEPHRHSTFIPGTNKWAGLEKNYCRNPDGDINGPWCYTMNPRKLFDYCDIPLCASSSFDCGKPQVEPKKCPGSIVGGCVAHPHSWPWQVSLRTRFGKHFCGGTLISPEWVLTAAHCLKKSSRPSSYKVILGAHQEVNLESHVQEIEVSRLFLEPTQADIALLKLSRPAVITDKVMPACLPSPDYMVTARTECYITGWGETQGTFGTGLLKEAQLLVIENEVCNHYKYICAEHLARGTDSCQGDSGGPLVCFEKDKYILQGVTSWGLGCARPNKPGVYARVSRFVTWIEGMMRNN

`O=C(O)[C@@H](Cc1cccc(COCCN(Cc2cccc(C[C@H](C(=O)O)[C@H]3CCNC3)c2)C(=O)Cc2cccc(C[C@H](C(=O)O)[C@H]3CCNC3)c2)c1)[C@H]1CCNC1` [Compound 160, (S)-3-(3-(2-((3-((S)-2-carboxy-2-((R)-pyrrolidin-3-yl)ethyl)benzyl)(2-((3-((S)-2-carboxy-2-((R)-pyrrolidin-3-yl)ethyl)benzyl)oxy)ethyl)amino)-2-oxoethyl)phenyl)-2-((R)-pyrrolidin-3-yl)propanoic acid]: in data set [1], the pIC50 is 8.86. In data set [2] (setting [4]), this compound had an AUC of 19200 ng·h/mL and a half-life of 12.1 h. In data set [2] (po), this compound came in with a bioavailability of 15.9%. For the same compound, in data set [2] (setting [5]), the AUC came to 23500 ng·h/mL, the concentration peaked (Cmax) at 816 ng/mL and the half-life was 28.8 h. Moreover, the “Lp(a) Inhibition Rate” value in the data set on serum Lp(a) is on record as 83%.
In data set [2] (setting [4]), `O=C(O)[C@@H](Cc1cccc(CN(Cc2cccc(C[C@H](C(=O)O)[C@H]3CCNC3)c2)Cc2cccc(C[C@H](C(=O)O)[C@H]3CCNC3)c2)c1)[C@H]1CCNC1` [LY3473329, reference compound] had an AUC of 8820 ng·h/mL and a half-life of 9.8 h. Moreover, the bioavailability in data set [2] (po) amounted to 10.1%. In data set [2] (setting [5]), the AUC worked out at 4460 ng·h/mL, the highest level (Cmax) was 629 ng/mL and the half-life is 7.4 h. Further, the “compound-related changes in clinical observation, body weight, food consumption, hematology, blood biochemistry, urine, organ weight, histopathology” value in data set [3] was “no changes”.
